Experiment [1] deals with IL-4 stimulated expression of CD23 in human Ramos B cells (JAK-1 and JAK-3). Nature of the experiment: Assay for Ramos B-Cell Line Stimulated with IL-4 (CD23 upregulation, FACS). Conditions: Ramos B-cell line stimulated with IL-4, CD23 expression by FACS, read-out: IC50, Example 41. The class given is cell-based. An outline of the steps: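 Compound effect on IL-4-driven JAK1/JAK3 signalling is gauged as CD23 surface expression, measured by FACS after 20-24 h of stimulation with IL-4 at 50 units/mL final. A 1 h compound pre-treatment at 37 °C precedes stimulation, and IC50 is derived from the results.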
(In general: Flow cytometry measures light scatter and fluorescence of single cells or particles in a stream.)

For experiment [2], the system named is Primary human T-cells. The experiment can be described thus: Primary Human T-Cell Proliferation Assay Stimulated with IL-2 (CellTiter-Glo). Conditions: primary human T-cell proliferation stimulated with IL-2, read-out: IC50, Example 42. The experiment is classed as cell-based. An outline of the steps:
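Peripheral blood T-cells pre-activated with anti-CD3/anti-CD28 and IL-2 were washed free of IL-2, then cultured with compound plus IL-2 for 72 hours at 37° C, duplicate wells. Viability read as ATP by CellTiter-Glo luminescence; IC50 reported.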
On the technique in general: In ATP-based viability assays light output follows the ATP content of the culture.

Where a name gives a salt, the structure may show the parent alone. Read-outs that look alike come from different tables or passages of the source.

On to `Cc1ccc(Nc2ncc(F)c(Nc3ccc(Oc4ccncc4)cc3)n2)cc1S(N)(=O)=O` [II-16, N2-(3-Aminosulfonyl-4-methylphenyl)-5-fluoro-N4-[4-(4-pyridyloxy)phenyl]-2,4-pyrimidinediamine], for which the IC50 in experiment [1] (Homo sapiens, Ramos) was 18300 nM; in experiment [2] (Homo sapiens, T-cell) it was 3720 nM.
The corresponding values for `NS(=O)(=O)c1cccc(Nc2ncc(F)c(Nc3ccc(Oc4ccncc4)cc3)n2)c1` [II-17, N2-(3-Aminosulfonylphenyl)-5-fluoro-N4-[4-(4-pyridyloxy)phenyl]-2,4-pyrimidinediamine] are 21200 nM and 8210 nM.
`CNS(=O)(=O)c1cc(Nc2ncc(F)c(Nc3ccc(Oc4ccncc4)cc3)n2)ccc1C` [II-18, 5-Fluoro-N2-[3-(N-methylaminosulfony)-4-methylphenyl]-5-fluoro-N4-[4-(4-pyridyloxy)phenyl]-2,4-pyrimidinediamine]: the IC50 in experiment [1] was determined as 2040 nM; in experiment [2], 3310 nM.
`N#CCCc1ccc(Nc2nc(Nc3ccc(Cl)c(S(N)(=O)=O)c3)ncc2F)cc1` [III-13, N2-(3-Aminosulfonyl-4-chlorophenyl)-N4-[4-(2-cyanoethyl)phenyl]-5-fluoro-2,4-pyrimidinediamine]: the IC50 is 295 nM in experiment [1] (Homo sapiens, Ramos) and 701 nM in experiment [2] (Homo sapiens, T-cell).
As to `Cc1cc(CCC#N)ccc1Nc1nc(Nc2cccc(S(N)(=O)=O)c2)ncc1F` [III-24, N2-(3-Aminosulfonylphenyl)-N4-(4-cyanoethylene-2-methylphenyl)-5-fluoro-2,4-pyrimidinediamine], the IC50 in experiment [1] is 258 nM; in experiment [2], 1620 nM.
For `COc1cc(Nc2nc(Nc3ccc(C)c(S(N)(=O)=O)c3)ncc2F)ccc1CCC#N` [III-25, N2-(3-Aminosulfonyl-4-methylphenyl)-N4-(4-cyanoethylene-3-methoxyphenyl)-5-fluoro-2,4-pyrimidinediamine], in that order: 272 nM and 1260 nM.
Regarding `Cc1cc(CCC#N)ccc1Nc1nc(Nc2cccc(S(N)(=O)=O)c2)ncc1F` [III-26, N2-(3-Aminosulfonylphenyl)-N4-(4-cyanoethylene-2-methylphenyl)-5-fluoro-2,4-pyrimidinediamine], the IC50 in experiment [1] amounted to 162 nM; in experiment [2] it was 583 nM.
For `CCC(=O)NS(=O)(=O)c1cc(Nc2ncc(F)c(Nc3ccc(C=CC#N)c(Cl)c3)n2)ccc1C` [III-28, N4-(3-Chloro-4-cyanoethylene-phenyl)-5-fluoro-N2-(4-methyl-3-propionylaminosulfonylphenyl)-2,4-pyrimidinediamine], in that order: 3750 nM and 17400 nM.
For `CCC(=O)NS(=O)(=O)c1cc(Nc2ncc(F)c(Nc3ccc(CCC#N)c(Cl)c3)n2)ccc1C` [III-29, N4-(3-Chloro-4-cyanoethylene-phenyl)-5-fluoro-N2-(4-methyl-3-propionylaminosulfonylphenyl)-2,4-pyrimidinediamine Sodium salt], in that order: 3630 nM and 12400 nM.
For `Cc1ccc(Nc2ncc(F)c(Nc3ccc(CCC#N)c(C(F)(F)F)c3)n2)cc1S(N)(=O)=O` [III-30, N4-(4-Cyanoethylene-3-trifluoromethylphenyl)-5-fluoro-N2-(4-methyl-3-aminosulfonylphenyl)-2,4-pyrimidinediamine], the IC50 was 64.5 nM in experiment [1] and 319 nM in experiment [2].
Consider `NC(=O)NCc1ccc(Nc2nc(Nc3ccc(S(N)(=O)=O)cc3)ncc2F)cc1` [III-32, N4-(4-Aminocarbonylaminomethylphenyl)-N2-(4-aminosulfonylphenyl)-5-fluoro-2,4-pyrimidinediamine], for which the IC50 was found to be 4400 nM in experiment [1] (Homo sapiens, Ramos) and 3320 nM in experiment [2] (Homo sapiens, T-cell).
The corresponding values for `NC(=O)NCc1ccc(Nc2nc(Nc3cccc(S(N)(=O)=O)c3)ncc2F)cc1` [III-33, N4-(4-Aminocarbonylaminomethylphenyl)-N2-(3-aminosulfonylphenyl)-5-fluoro-2,4-pyrimidinediamine] are 1680 nM and 852 nM.
The corresponding values for `Cc1ccc(Nc2ncc(F)c(Nc3ccc(CNC(N)=O)cc3)n2)cc1S(N)(=O)=O` [III-34, N4-(4-Aminocarbonylaminomethylphenyl)-N2-(3-aminosulfonyl-4-methylphenyl)-5-fluoro-2,4-pyrimidinediamine] are 473 nM and 381 nM.
For `CCC(=O)NCc1ccc(Nc2nc(Nc3cccc(S(N)(=O)=O)c3)ncc2F)cc1` [III-36, N2-(3-aminosulfonyl)phenyl-N4-(4-ethylcarbonylaminomethyl)phenyl-5-fluoro-2,4-pyrimidinediamine], the IC50 in experiment [1] was determined as 394 nM; in experiment [2] it was 382 nM.
Consider `NS(=O)(=O)c1ccc(Nc2ncc(F)c(Nc3cccc(CNC(=O)C4CC4)c3)n2)cc1` [III-38, N2-(4-aminosulfonyl)phenyl-N4-(3-cyclopropylcarbonylaminomethyl)phenyl-5-fluoro-2,4-pyrimidinediamine], for which the IC50 in experiment [1] was 198 nM; in experiment [2], 1130 nM.
The corresponding values for `NS(=O)(=O)c1cccc(Nc2ncc(F)c(Nc3ccc(CNC(=O)C4CC4)cc3)n2)c1` [III-42, N2-(3-aminosulfonyl)phenyl-N4-(4-cyclopropylcarbonylaminomethyl)phenyl-5-fluoro-2,4-pyrimidinediamine] are 294 nM and 641 nM.
The corresponding values for `Cc1ccc(Nc2ncc(F)c(Nc3ccc(CNC(=O)C4CC4)cc3)n2)cc1S(N)(=O)=O` [III-43, N2-(3-aminosulfonyl-4-methyl)phenyl-N4-(4-cyclopropylcarbonylaminomethyl)phenyl-5-fluoro-2,4-pyrimidinediamine] are 270 nM and 898 nM.
Take `C=CC(=O)NCc1ccc(Nc2nc(Nc3cccc(S(N)(=O)=O)c3)ncc2F)cc1` [III-45, N4-(4-Acrylamidomethylphenyl)-N2-(3-aminosulfonylphenyl)-5-fluoro-2,4-pyrimidinediamine]: the IC50 came to 293 nM in experiment [1] (Homo sapiens, Ramos) and 384 nM in experiment [2] (Homo sapiens, T-cell).
As for `C=CC(=O)NCc1ccc(Nc2nc(Nc3ccc(C)c(S(N)(=O)=O)c3)ncc2F)cc1` [III-46, N4-(4-Acrylamidomethylphenyl)-N2-(3-aminosulfonyl-4-methylphenyl)-5-fluoro-2,4-pyrimidinediamine], the IC50 in experiment [1] (Homo sapiens, Ramos) came out at 211 nM; in experiment [2] (Homo sapiens, T-cell), 1050 nM.
As to `Cc1ccc(Nc2ncc(F)c(Nc3ccc(CCC(N)=O)cc3)n2)cc1S(N)(=O)=O` [III-47, N4-[4-(2-Aminocarboxylethylene)phenyl]-5-fluoro-N2-(4-methyl-3-aminosulfonylphenyl)-2,4-pyrimidinediamine], the IC50 in experiment [1] stood at 211 nM; in experiment [2], 366 nM.
For `NC(=O)CCc1ccc(Nc2nc(Nc3cccc(S(N)(=O)=O)c3)ncc2F)cc1` [III-48, N4-[4-(2-Aminocarboxylethylene)phenyl]-N2-(3-aminosulfonylphenyl)-5-fluoro-2,4-pyrimidinediamine], in that order: 204 nM and 218 nM.
The corresponding values for `Cn1ccc(NC(=O)Cc2ccc(Nc3nc(Nc4cccc(S(N)(=O)=O)c4)ncc3F)cc2)n1` [III-50, N2-(3-Aminosulfonylphenyl)-5-fluoro-N-4-[4(1-methylpyrazolyl-3-aminocarbonylmethylene)phenyl]-2,4-pyrimidinediamine] are 306 nM and 1970 nM.
The corresponding values for `CCn1nccc1NC(=O)Cc1ccc(Nc2nc(Nc3ccc(C)c(S(N)(=O)=O)c3)ncc2F)cc1` [III-52, N2-(3-Aminosulfonyl-4-methylphenyl)-5-N4-[(1-ethylpyrazolyl-5-aminocarbonylmethylene)phenyl]-5-fluoro-2,4-pyrimidinediamine] are 183 nM and 1200 nM.
Regarding `NC(=O)OCCc1ccc(Nc2nc(Nc3ccc(Cl)c(S(N)(=O)=O)c3)ncc2F)cc1` [III-55, N4-{4-[2-(Aminocarbonyloxy)ethyl]phenyl}-N2-(3-aminosulfonyl-4-chlorophenyl)-5-fluoro-2,4-pyrimidinediamine], the IC50 is 144 nM in experiment [1] (Homo sapiens, Ramos) and 973 nM in experiment [2] (Homo sapiens, T-cell).
The corresponding values for `Cc1ccc(Nc2ncc(F)c(Nc3ccc(CCOC(=O)N(C)C)cc3)n2)cc1S(N)(=O)=O` [III-56, N2-(3-Aminosulfonyl-4-methylphenyl)-N4-{4-[2-(dimethylaminocarbonyloxy)ethyl]phenyl}-5-fluoro-2,4-pyrimidinediamine] are 196 nM and 499 nM.
The corresponding values for `CN(C)C(=O)OCCc1ccc(Nc2nc(Nc3ccc(Cl)c(S(N)(=O)=O)c3)ncc2F)cc1` [III-58, N2-(3-Aminosulfonyl-4-chlorophenyl)-N4-{4-[2-(dimethylaminocarbonyloxy)ethyl]phenyl}-5-fluoro-2,4-pyrimidinediamine] are 157 nM and 1260 nM.
For `CNC(=O)OCCc1ccc(Nc2nc(Nc3ccc(C)c(S(N)(=O)=O)c3)ncc2F)cc1` [III-59, N2-(3-Aminosulfonyl-4-methylphenyl)-5-fluoro-N4-{4-[2-(methylaminocarbonyloxy)ethyl]phenyl}-2,4-pyrimidinediamine], in that order: 150 nM and 458 nM.
For `CNC(=O)OCCc1ccc(Nc2nc(Nc3ccc(Cl)c(S(N)(=O)=O)c3)ncc2F)cc1` [III-61, N2-(3-Aminosulfonyl-4-chlorophenyl)-5-fluoro-N4-{4-[2-(methylaminocarbonyloxy)ethyl]phenyl}-2,4-pyrimidinediamine], the IC50 in experiment [1] (Homo sapiens, Ramos) turned out to be 259 nM; in experiment [2] (Homo sapiens, T-cell) it was 1080 nM.

One may read the IC50 as the concentration that inhibits the measured activity by half.

(Values after patent US11827628B2, “Compositions and methods for inhibition of the JAK pathway” (Rigel Pharmaceuticals, Inc., priority 2005, dated 2023).)
